In patent US7932050B2, “Enzymatic substrates derived from phenoxazinone and their use as developers in detection of microorganisms with peptidase activity” (bioMerieux, priority 2004, dated 2011):

Legend:
Type in all cases: cell-based
Pseudomonas aeruginosa [1] = assay: Detection of β-alanine peptidase activity (example 9), colony coloration; details: between 24 and 48 h of incubation, no accession No.
[2] = test system: Burkholderia cepacia GI LMG1222; assay: as above; details: between 24 and 48 h of incubation; strain LMG1222
[3] = test system: Burkholderia cepacia GIII LMG 18832; assay: as above; details: between 24 and 48 h of incubation; strain LMG 18832
[4] = test system: Acinetobacter baumannii ATCC 19606; assay: as above; details: between 24 and 48 h of incubation; strain ATCC 19606
[5] = test system: Acinetobacter calcoaceticus; assay: as above; details: between 24 and 48 h of incubation
[6] = test system: Pseudomonas fragilis NCIMB 8987; assay: as above; details: between 24 and 48 h of incubation; strain NCIMB 8987
Pseudomonas maltophilia = assay: as above; details: between 24 and 48 h of incubation
Ralstonia basilensis = details: between 24 and 48 h of incubation
Ralstonia taiwanensis = details: between 24 and 48 h of incubation
[7] = test system: Escherichia coli NCTC 10418; assay: Detection of L-alanine peptidase activity on Columbia agar containing the substrate; design: key to C [head as printed; cells hold growth signs]: the sign ++ signifies very good growth; the sign + signifies good growth of the strain; the sign +/− signifies average growth of the strain; the sign − signifies absence of growth of the strain; details: substrate 50 mg/l in Columbia agar; 24 to 48 h at 37° C.
[8] = test system: Klebsiella pneumoniae NCTC 10896; assay: as above; design: key to C [head as printed; cells hold growth signs]: the sign ++ signifies very good growth; the sign + signifies good growth of the strain; the sign +/− signifies average growth of the strain; the sign − signifies absence of growth of the strain; details: substrate 50 mg/l in Columbia agar; 24 to 48 h at 37° C.
Salmonella hadar = assay: as above; design: key to C [head as printed; cells hold growth signs]: the sign ++ signifies very good growth; the sign + signifies good growth of the strain; the sign +/− signifies average growth of the strain; the sign − signifies absence of growth of the strain; details: substrate 50 mg/l in Columbia agar; 24 to 48 h at 37° C.
[9] = test system: Proteus mirabilis NCTC 10975; assay: as above; design: key to C [head as printed; cells hold growth signs]: the sign ++ signifies very good growth; the sign + signifies good growth of the strain; the sign +/− signifies average growth of the strain; the sign − signifies absence of growth of the strain; details: substrate 50 mg/l in Columbia agar; 24 to 48 h at 37° C.
[10] = test system: Staphylococcus aureus NCTC 6571; assay: as above; design: key to G [head as printed; cells hold colony color]: I signifies colorless; key to C [head as printed; cells hold growth signs]: the sign ++ signifies very good growth; the sign + signifies good growth of the strain; the sign +/− signifies average growth of the strain; the sign − signifies absence of growth of the strain; details: substrate 50 mg/l in Columbia agar; 24 to 48 h at 37° C.
[11] = test system: Providencia rettgeri NCTC 7475; assay: as above; design: key to C [head as printed; cells hold growth signs]: the sign ++ signifies very good growth; the sign + signifies good growth of the strain; the sign +/− signifies average growth of the strain; the sign − signifies absence of growth of the strain; details: substrate 50 mg/l in Columbia agar; 24 to 48 h at 37° C.
[12] = test system: Pseudomonas aeruginosa NCTC 10662; assay: as above; design: key to C [head as printed; cells hold growth signs]: the sign ++ signifies very good growth; the sign + signifies good growth of the strain; the sign +/− signifies average growth of the strain; the sign − signifies absence of growth of the strain; details: substrate 50 mg/l in Columbia agar; 24 to 48 h at 37° C.
[13] = test system: Listeria monocytogenes NCTC 11994; assay: as above; design: key to G [head as printed; cells hold colony color]: I signifies colorless; key to C [head as printed; cells hold growth signs]: the sign ++ signifies very good growth; the sign + signifies good growth of the strain; the sign +/− signifies average growth of the strain; the sign − signifies absence of growth of the strain; details: substrate 50 mg/l in Columbia agar; 24 to 48 h at 37° C.
[14] = test system: Streptococcus pyogenes NCTC 8306; assay: as above; design: key to G [head as printed; cells hold colony color]: I signifies colorless; key to C [head as printed; cells hold growth signs]: the sign ++ signifies very good growth; the sign + signifies good growth of the strain; the sign +/− signifies average growth of the strain; the sign − signifies absence of growth of the strain; details: substrate 50 mg/l in Columbia agar; 24 to 48 h at 37° C.
Pseudomonas aeruginosa [15] = assay: Detection of β-alanine peptidase activity (example 11), colony coloration; details: between 24 and 48 h of incubation
Pseudomonas fluorescens = assay: as above; details: between 24 and 48 h of incubation; Applicant's collection
Pseudomonas putida = assay: as above; details: between 24 and 48 h of incubation; Applicant's collection
[16] = test system: Burkholderia cepacia LMG 18941; assay: as above; details: between 24 and 48 h of incubation; strain LMG 18941
[17] = test system: Burkholderia Gladioli LGM 6880; assay: as above; details: between 24 and 48 h of incubation; strain LGM 6880
Escherichia coli = assay: as above; details: between 24 and 48 h of incubation; Applicant's collection
[18] = first P. aeruginosa strain of table 2 (r6)
[19] = fourth P. aeruginosa strain of table 2 (r12)
[20] = second P. aeruginosa strain of table 2 (r8)
[21] = third P. aeruginosa strain of table 2 (r10)
[22] = strain of Applicant's collection (r9)
[23] = strain of Applicant's collection (r13)

With CCCCCc1cc(=O)cc2oc3cc(NC(=O)CCNC(=O)OC(C)(C)C)ccc3nc1-2 [Nonchlorinated beta-alanyl compound, 7-N—(N′-t-butoxycarbonyl-β-alanyl)amino-1-pentylphenoxazin-3-one] the coloration (Pseudomonas aeruginosa [1]; [18]) was “purple”, the coloration (Pseudomonas aeruginosa [1]; [19]) was “purple” and the coloration (Pseudomonas aeruginosa [1]; [20]) was “purple”. The coloration (Pseudomonas aeruginosa [1]; [21]) was “purple”, the coloration [2] was “yellow” and the coloration [3] was “yellow”. For the same molecule, the coloration [4] was “colorless”, the coloration [5] was “colorless” and the coloration [6] was “colorless”. For the same molecule, the coloration (Pseudomonas maltophilia) was “colorless”, the coloration (Ralstonia basilensis) was “colorless” and the coloration (Ralstonia taiwanensis) was “colorless”.

For CCCCCc1c2nc3ccc(NC(=O)CCNC(=O)OC(C)(C)C)cc3oc-2cc(=O)c1Cl [Chlorinated beta-alanyl compound, 7-N—(N′-t-butoxycarbonyl-β-alanyl)amino-2-chloro-1-pentylphenoxazin-3-one], the coloration (Pseudomonas aeruginosa [1]; [18]) was “purple”, the coloration (Pseudomonas aeruginosa [1]; [19]) was “purple” and the coloration (Pseudomonas aeruginosa [1]; [20]) was “pale purple”. For the same molecule, the coloration (Pseudomonas aeruginosa [1]; [21]) was “pale purple”, the coloration [2] was “yellow” and the coloration [3] was “yellow”. For the same molecule, the coloration [4] was “colorless”, the coloration [5] was “colorless” and the coloration [6] was “colorless”. The coloration (Pseudomonas maltophilia) was “colorless”, the coloration (Ralstonia basilensis) was “colorless” and the coloration (Ralstonia taiwanensis) was “colorless”.

In the case of CCCCCc1c2nc3ccc(NC(=O)[C@H](C)NC(=O)OC(C)(C)C)cc3oc-2cc(=O)c1Cl [Chlorinated L-alanyl compound, 7-N—(N′-t-butoxycarbonyl-L-alanyl)amino-2-chloro-1-pentylphenoxazin-3-one], the “C [head as printed; cells hold growth signs]” value [7] is reported as “+”, the “G [head as printed; cells hold colony color]” value [7] is reported as “pink/purple” and the “C [head as printed; cells hold growth signs]” value [8] is reported as “+”. For the same molecule, the “G [head as printed; cells hold colony color]” value [8] was “pink/purple”, the “C [head as printed; cells hold growth signs]” value (Salmonella hadar) was “+” and the “G [head as printed; cells hold colony color]” value (Salmonella hadar) was “pinl/purple”. The “C [head as printed; cells hold growth signs]” value [9] was “+”, the “G [head as printed; cells hold colony color]” value [9] was “pink/purple” and the “C [head as printed; cells hold growth signs]” value [10] was “+”. For the same molecule, the “G [head as printed; cells hold colony color]” value [10] was “I”, the “C [head as printed; cells hold growth signs]” value [11] was “+” and the “G [head as printed; cells hold colony color]” value [11] was “pink/purple”. For the same molecule, the “C [head as printed; cells hold growth signs]” value [12] was “+”, the “G [head as printed; cells hold colony color]” value [12] was “pink/purple” and the “C [head as printed; cells hold growth signs]” value [13] was “+”. The “G [head as printed; cells hold colony color]” value [13] was “I”, the “C [head as printed; cells hold growth signs]” value [14] was “+/−” and the “G [head as printed; cells hold colony color]” value [14] was “I”.

In the case of Cc1c2nc3ccc(NC(=O)CCN)cc3oc-2c(C)c(=O)c1C.O=C(O)C(F)(F)F [b-ala-TMP, 7-N-(β-Alanyl)amino-1,2,4-trimethylphenoxazin-3-one trifluoroacetate salt], the coloration (Pseudomonas aeruginosa [15]; strain ATCC 9027) is reported as “pink”, the coloration (Pseudomonas aeruginosa [15]; strain ATCC 10145) is reported as “orangy-” and the coloration (Pseudomonas aeruginosa [15]; strain ATCC 27853) is reported as “pink”. The coloration (Pseudomonas aeruginosa [15]; [22]) was “orangy-”, the coloration (Pseudomonas aeruginosa [15]; [23]) was “colorless” and the coloration (Pseudomonas fluorescens) was “colorless”. The coloration (Pseudomonas putida) was “colorless”, the coloration [16] was “pale pink” and the coloration [17] was “colorless”. For the same molecule, the coloration (Escherichia coli) was “orange”.

Cc1c2nc3ccc(NC(=O)CCN)cc3oc-2cc(=O)c1C.O=C(O)C(F)(F)F [b-ala-DMP, 7-N-(β-Alanyl)amino-1,2-dimethylphenoxazin-3-one trifluoroacetate salt] was tested, and the coloration (Pseudomonas aeruginosa [15]; strain ATCC 9027) was “deep pink”, the coloration (Pseudomonas aeruginosa [15]; strain ATCC 10145) was “deep pink” and the coloration (Pseudomonas aeruginosa [15]; strain ATCC 27853) was “pink”. The coloration (Pseudomonas aeruginosa [15]; [22]) was “deep pink”, the coloration (Pseudomonas aeruginosa [15]; [23]) was “colorless” and the coloration (Pseudomonas fluorescens) was “colorless”. The coloration (Pseudomonas putida) was “colorless”, the coloration [16] was “pale pink” and the coloration [17] was “colorless”. The coloration (Escherichia coli) was “orange”.

COC(=O)c1c2oc3cc(NC(=O)CCNC(=O)OC(C)(C)C)ccc3nc-2c(C)c(Cl)c1=O [b-ala-MCMP, methyl 7-N—(N′-t-butoxycarbonyl-β-alanyl)amino-1-methyl-2-chlorophenoxazin-3-one-4-carboxylate] was tested, and the coloration (Pseudomonas aeruginosa [15]; strain ATCC 9027) was “pink-”, the coloration (Pseudomonas aeruginosa [15]; strain ATCC 10145) was “violet” and the coloration (Pseudomonas aeruginosa [15]; strain ATCC 27853) was “violet”. The coloration (Pseudomonas aeruginosa [15]; [22]) was “violet”, the coloration (Pseudomonas aeruginosa [15]; [23]) was “colorless” and the coloration (Pseudomonas fluorescens) was “colorless”. The coloration (Pseudomonas putida) was “colorless”, the coloration [16] was “colorless” and the coloration [17] was “colorless”. For the same molecule, the coloration (Escherichia coli) was “colorless”.

For CCCCCc1cc(=O)cc2oc3cc(NC(=O)[C@H](C)NC(=O)OC(C)(C)C)ccc3nc1-2 [Nonchlorinated L-alanyl compound, 7-N—(N″-t-butoxycarbonyl-L-alanyl)amino-1-pentylphenoxazin-3-one], the “C [head as printed; cells hold growth signs]” value [7] was “+”, the “G [head as printed; cells hold colony color]” value [7] was “purple” and the “C [head as printed; cells hold growth signs]” value [8] was “+”. For the same molecule, the “G [head as printed; cells hold colony color]” value [8] was “purple”, the “C [head as printed; cells hold growth signs]” value (Salmonella hadar) was “+” and the “G [head as printed; cells hold colony color]” value (Salmonella hadar) was “purple”. For the same molecule, the “C [head as printed; cells hold growth signs]” value [9] was “+”, the “G [head as printed; cells hold colony color]” value [9] was “purple” and the “C [head as printed; cells hold growth signs]” value [10] was “−”. The “G [head as printed; cells hold colony color]” value [10] was “I”, the “C [head as printed; cells hold growth signs]” value [11] was “+” and the “G [head as printed; cells hold colony color]” value [11] was “purple”. For the same molecule, the “C [head as printed; cells hold growth signs]” value [12] was “+”, the “G [head as printed; cells hold colony color]” value [12] was “purple” and the “C [head as printed; cells hold growth signs]” value [13] was “−”. For the same molecule, the “G [head as printed; cells hold colony color]” value [13] was “I”, the “C [head as printed; cells hold growth signs]” value [14] was “−” and the “G [head as printed; cells hold colony color]” value [14] was “I”.
